Test results published in PubChem BioAssay (NCI).
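Dose response: 5 concentrations. Exposure: 48 h. Format: 96-well plates. Endpoint: linear interpolation; highest concentration if not reached. TGI: concentration producing complete growth inhibition.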

Tests used:
Experiment in all cases: inhibition of tumour cell growth, NCI panel, 48 h
PC-3 prostate = test system: PC-3 prostate
HT29 colon = test system: HT29 colon
NCI-H23 lung = test system: NCI-H23 lung
HCT-15 colon = test system: HCT-15 colon
UO-31 renal = test system: UO-31 renal
EKVX NSCLC = test system: EKVX NSCLC
SF-268 CNS = test system: SF-268 CNS
RPMI-8226 leukemia = test system: RPMI-8226 leukemia
MOLT-4 leukemia = test system: MOLT-4 leukemia
COLO 205 colon = test system: COLO 205 colon
UACC-257 melanoma = test system: UACC-257 melanoma
OVCAR-4 ovarian = test system: OVCAR-4 ovarian
MDA-MB-231 breast = test system: MDA-MB-231 breast
A498 renal = test system: A498 renal
MALME-3M melanoma = test system: MALME-3M melanoma
CCRF-CEM leukemia = test system: CCRF-CEM leukemia
NCI-H522 lung = test system: NCI-H522 lung
SNB-75 CNS = test system: SNB-75 CNS
SN12C renal = test system: SN12C renal
LOX IMVI melanoma = test system: LOX IMVI melanoma
HS 578T breast = test system: HS 578T breast
HOP-62 NSCLC = test system: HOP-62 NSCLC
T-47D breast = test system: T-47D breast
MDA-MB-435 = test system: MDA-MB-435
SF-539 CNS = test system: SF-539 CNS
SK-OV-3 ovarian = test system: SK-OV-3 ovarian
NCI/ADR-RES ovarian = test system: NCI/ADR-RES ovarian
RXF 393 renal = test system: RXF 393 renal
SNB-19 CNS = test system: SNB-19 CNS
SR leukemia = test system: SR leukemia
NCI-H226 lung = test system: NCI-H226 lung
NCI-H460 lung = test system: NCI-H460 lung
UACC-62 melanoma = test system: UACC-62 melanoma
SK-MEL-2 melanoma = test system: SK-MEL-2 melanoma
SK-MEL-28 melanoma = test system: SK-MEL-28 melanoma
DU-145 prostate = test system: DU-145 prostate
OVCAR-5 ovarian = test system: OVCAR-5 ovarian
IGROV1 ovarian = test system: IGROV1 ovarian
M14 melanoma = test system: M14 melanoma
SK-MEL-5 melanoma = test system: SK-MEL-5 melanoma
BT-549 breast = test system: BT-549 breast
786-0 renal = test system: 786-0 renal
OVCAR-8 ovarian = test system: OVCAR-8 ovarian
K-562 leukemia = test system: K-562 leukemia
A549 NSCLC = test system: A549 NSCLC
U251 CNS = test system: U251 CNS
HOP-92 NSCLC = test system: HOP-92 NSCLC
TK-10 renal = test system: TK-10 renal
HL-60(TB) leukemia = test system: HL-60(TB) leukemia
ACHN renal = test system: ACHN renal
HCC-2998 colon = test system: HCC-2998 colon
MCF7 breast = test system: MCF7 breast
OVCAR-3 ovarian = test system: OVCAR-3 ovarian
SF-295 CNS = test system: SF-295 CNS
KM12 colon = test system: KM12 colon
CAKI-1 renal = test system: CAKI-1 renal
HCT-116 colon = test system: HCT-116 colon
MDA-N = test system: MDA-N
SW-620 colon = test system: SW-620 colon
DMS 273 small cell lung = test system: DMS 273 small cell lung
LXFL 529 NSCLC = test system: LXFL 529 NSCLC
KM20L2 colon = test system: KM20L2 colon
DLD-1 colon = test system: DLD-1 colon
XF 498 CNS = test system: XF 498 CNS
SNB-78 CNS = test system: SNB-78 CNS

Structure (SMILES): Cc1ccc(NC(=S)C#N)c(C)c1
- TGI (PC-3 prostate): > 100 µM
- TGI (HT29 colon): > 100 µM
- TGI (NCI-H23 lung): > 100 µM
- TGI (HCT-15 colon): > 100 µM
- TGI (UO-31 renal): > 100 µM
- TGI (EKVX NSCLC): > 100 µM
- TGI (SF-268 CNS): > 100 µM
- TGI (RPMI-8226 leukemia): 76 µM
- TGI (MOLT-4 leukemia): > 100 µM
- TGI (COLO 205 colon): > 100 µM
- TGI (UACC-257 melanoma): > 100 µM
- TGI (OVCAR-4 ovarian): > 100 µM
- TGI (MDA-MB-231 breast): > 100 µM
- TGI (A498 renal): > 100 µM
- TGI (MALME-3M melanoma): > 94.9 µM
- TGI (CCRF-CEM leukemia): > 100 µM
- TGI (NCI-H522 lung): > 100 µM
- TGI (SNB-75 CNS): > 100 µM
- TGI (SN12C renal): > 100 µM
- TGI (LOX IMVI melanoma): > 100 µM
- TGI (HS 578T breast): > 100 µM
- TGI (HOP-62 NSCLC): > 100 µM
- TGI (T-47D breast): > 100 µM
- TGI (MDA-MB-435): > 100 µM
- TGI (SF-539 CNS): > 100 µM
- TGI (SK-OV-3 ovarian): > 100 µM
- TGI (NCI/ADR-RES ovarian): > 100 µM
- TGI (RXF 393 renal): > 100 µM
- TGI (SNB-19 CNS): > 100 µM
- TGI (SR leukemia): > 100 µM
- TGI (NCI-H226 lung): > 100 µM
- TGI (NCI-H460 lung): > 100 µM
- TGI (UACC-62 melanoma): > 100 µM
- TGI (SK-MEL-2 melanoma): > 100 µM
- TGI (SK-MEL-28 melanoma): > 100 µM
- TGI (DU-145 prostate): > 100 µM
- TGI (OVCAR-5 ovarian): > 100 µM
- TGI (IGROV1 ovarian): > 100 µM
- TGI (M14 melanoma): > 100 µM
- TGI (SK-MEL-5 melanoma): > 100 µM
- TGI (BT-549 breast): > 100 µM
- TGI (786-0 renal): > 100 µM
- TGI (OVCAR-8 ovarian): > 100 µM
- TGI (K-562 leukemia): > 100 µM
- TGI (A549 NSCLC): > 100 µM
- TGI (U251 CNS): > 100 µM
- TGI (HOP-92 NSCLC): > 100 µM
- TGI (TK-10 renal): > 100 µM
- TGI (HL-60(TB) leukemia): > 71.2 µM
- TGI (ACHN renal): > 100 µM
- TGI (HCC-2998 colon): > 100 µM
- TGI (MCF7 breast): > 100 µM
- TGI (OVCAR-3 ovarian): > 100 µM
- TGI (SF-295 CNS): > 100 µM
- TGI (KM12 colon): > 100 µM
- TGI (CAKI-1 renal): > 100 µM
- TGI (HCT-116 colon): > 100 µM
- TGI (MDA-N): > 100 µM
- TGI (SW-620 colon): > 100 µM

Structure (SMILES): NC(=O)C(=O)C1C(=O)N(c2ccccc2)N=C1N (configuration not stated)
- TGI (HT29 colon): > 100 µM
- TGI (NCI-H23 lung): > 100 µM
- TGI (HCT-15 colon): > 100 µM
- TGI (UO-31 renal): > 100 µM
- TGI (SF-268 CNS): > 100 µM
- TGI (RPMI-8226 leukemia): > 100 µM
- TGI (MOLT-4 leukemia): > 100 µM
- TGI (COLO 205 colon): > 100 µM
- TGI (UACC-257 melanoma): > 100 µM
- TGI (OVCAR-4 ovarian): > 100 µM
- TGI (DMS 273 small cell lung): > 100 µM
- TGI (LXFL 529 NSCLC): > 100 µM
- TGI (KM20L2 colon): > 100 µM
- TGI (MALME-3M melanoma): > 100 µM
- TGI (NCI-H522 lung): > 100 µM
- TGI (SNB-75 CNS): > 100 µM
- TGI (SN12C renal): > 100 µM
- TGI (LOX IMVI melanoma): > 100 µM
- TGI (HOP-62 NSCLC): > 100 µM
- TGI (DLD-1 colon): > 100 µM
- TGI (SF-539 CNS): > 100 µM
- TGI (SK-OV-3 ovarian): > 100 µM
- TGI (SNB-19 CNS): > 100 µM
- TGI (SR leukemia): > 100 µM
- TGI (NCI-H226 lung): > 100 µM
- TGI (NCI-H460 lung): > 100 µM
- TGI (UACC-62 melanoma): > 100 µM
- TGI (SK-MEL-2 melanoma): > 100 µM
- TGI (SK-MEL-28 melanoma): > 100 µM
- TGI (XF 498 CNS): > 100 µM
- TGI (OVCAR-5 ovarian): > 100 µM
- TGI (IGROV1 ovarian): > 100 µM
- TGI (M14 melanoma): > 100 µM
- TGI (786-0 renal): > 100 µM
- TGI (OVCAR-8 ovarian): > 100 µM
- TGI (K-562 leukemia): > 100 µM
- TGI (A549 NSCLC): > 100 µM
- TGI (HOP-92 NSCLC): > 100 µM
- TGI (TK-10 renal): > 100 µM
- TGI (HL-60(TB) leukemia): > 100 µM
- TGI (ACHN renal): > 100 µM
- TGI (HCC-2998 colon): > 100 µM
- TGI (OVCAR-3 ovarian): > 100 µM
- TGI (SF-295 CNS): > 100 µM
- TGI (SNB-78 CNS): > 100 µM
- TGI (KM12 colon): > 100 µM
- TGI (CAKI-1 renal): > 100 µM
- TGI (HCT-116 colon): > 100 µM
- TGI (SW-620 colon): > 100 µM

Structure (SMILES): COC(=O)[C@@H](NC(=O)[C@H](N)Cc1ccc(N(CCCl)CCCl)cc1)C(C)C
- TGI (PC-3 prostate): > 100 µM
- TGI (HT29 colon): > 100 µM
- TGI (NCI-H23 lung): 16.8 µM
- TGI (HCT-15 colon): 72.8 µM
- TGI (UO-31 renal): 33 µM
- TGI (EKVX NSCLC): > 90.8 µM
- TGI (SF-268 CNS): 97.1 µM
- TGI (RPMI-8226 leukemia): 34 µM
- TGI (MOLT-4 leukemia): 0.234 µM
- TGI (COLO 205 colon): > 64.4 µM
- TGI (UACC-257 melanoma): 25 µM
- TGI (OVCAR-4 ovarian): 36.7 µM
- TGI (MDA-MB-231 breast): 57.7 µM
- TGI (A498 renal): 48.5 µM
- TGI (MALME-3M melanoma): 6.19 µM
- TGI (CCRF-CEM leukemia): > 29.6 µM
- TGI (NCI-H522 lung): 33.1 µM
- TGI (SNB-75 CNS): 66.6 µM
- TGI (SN12C renal): > 79.7 µM
- TGI (LOX IMVI melanoma): 37.9 µM
- TGI (HS 578T breast): 77.7 µM
- TGI (HOP-62 NSCLC): > 100 µM
- TGI (T-47D breast): 35.5 µM
- TGI (MDA-MB-435): 47.5 µM
- TGI (SF-539 CNS): 67.6 µM
- TGI (SK-OV-3 ovarian): > 100 µM
- TGI (NCI/ADR-RES ovarian): 40.8 µM
- TGI (RXF 393 renal): 55.5 µM
- TGI (SNB-19 CNS): > 100 µM
- TGI (SR leukemia): > 38.6 µM
- TGI (NCI-H226 lung): 59.2 µM
- TGI (NCI-H460 lung): 26.3 µM
- TGI (UACC-62 melanoma): 13.4 µM
- TGI (SK-MEL-2 melanoma): > 100 µM
- TGI (SK-MEL-28 melanoma): 40.4 µM
- TGI (DU-145 prostate): 59.1 µM
- TGI (OVCAR-5 ovarian): > 100 µM
- TGI (IGROV1 ovarian): 45.1 µM
- TGI (M14 melanoma): 49.5 µM
- TGI (SK-MEL-5 melanoma): 10.8 µM
- TGI (BT-549 breast): 65.3 µM
- TGI (786-0 renal): 49.7 µM
- TGI (OVCAR-8 ovarian): 27.8 µM
- TGI (K-562 leukemia): 40.3 µM
- TGI (A549 NSCLC): > 100 µM
- TGI (U251 CNS): > 100 µM
- TGI (HOP-92 NSCLC): 5.72 µM
- TGI (TK-10 renal): 56.7 µM
- TGI (HL-60(TB) leukemia): > 51.8 µM
- TGI (ACHN renal): 51.8 µM
- TGI (HCC-2998 colon): 26.5 µM
- TGI (MCF7 breast): > 100 µM
- TGI (OVCAR-3 ovarian): > 72.8 µM
- TGI (SF-295 CNS): > 100 µM
- TGI (KM12 colon): 66.4 µM
- TGI (CAKI-1 renal): 7.53 µM
- TGI (HCT-116 colon): 44.1 µM
- TGI (MDA-N): > 68 µM
- TGI (SW-620 colon): > 77.3 µM
